In US5677326A, “Indoline compound and 5-HT3 receptor antagonist containing the same as active ingredient” (Tokyo Tanabe Company Limited, priority 1993, dated 1997):
Structures can show the parent of a compound that is named as a salt. Where two headings read alike, the source gives them in different places.

Tests used:
[1] = biological target: T1, 5-HT3 receptors in the heart (Rattus norvegicus, UniProt P35563); experiment: Antagonism against Von Bezold-Jarisch reflex (BJ reflex); assay type: in vivo, SD rats; settings: 5 min before serotonin 30 μg/kg, read-out: ID50 (the source's name)
T1 construct: from tissue; host or cells: living anesthetized male SD rats (in vivo)
T1 sequence (P35563 24-483): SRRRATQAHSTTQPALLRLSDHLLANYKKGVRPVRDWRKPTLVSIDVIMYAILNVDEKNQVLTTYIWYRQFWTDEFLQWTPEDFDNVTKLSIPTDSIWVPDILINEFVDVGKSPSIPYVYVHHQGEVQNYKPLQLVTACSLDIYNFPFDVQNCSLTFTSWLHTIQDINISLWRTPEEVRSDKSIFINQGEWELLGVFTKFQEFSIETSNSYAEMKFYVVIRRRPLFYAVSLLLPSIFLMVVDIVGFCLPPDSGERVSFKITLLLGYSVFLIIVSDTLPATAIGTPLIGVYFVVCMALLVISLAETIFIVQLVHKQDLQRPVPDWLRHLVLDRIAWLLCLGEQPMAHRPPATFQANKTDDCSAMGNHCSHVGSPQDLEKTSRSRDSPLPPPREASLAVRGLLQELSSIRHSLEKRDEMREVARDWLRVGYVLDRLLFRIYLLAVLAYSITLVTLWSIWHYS
Experimental: Antagonism against Von Bezold-Jarisch reflex (BJ reflex):
The pulse was determined by measuring the electrocardiogram R waves (secondary induction) with an instantaneous pulse rate meter.

[2] = biological target: T2, Intestinal 5-HT3 receptor (Cavia porcellus, UniProt O70212); experiment: Intestinal 5-HT3 receptor antagonism (isolated distal colon, 2-methylserotonin-induced contraction); assay type: cell-based, Hartley guinea pigs; settings: for Kb: isolated distal colon, 2-methylserotonin contraction
T2 sequence (O70212 24-490 limits assumed): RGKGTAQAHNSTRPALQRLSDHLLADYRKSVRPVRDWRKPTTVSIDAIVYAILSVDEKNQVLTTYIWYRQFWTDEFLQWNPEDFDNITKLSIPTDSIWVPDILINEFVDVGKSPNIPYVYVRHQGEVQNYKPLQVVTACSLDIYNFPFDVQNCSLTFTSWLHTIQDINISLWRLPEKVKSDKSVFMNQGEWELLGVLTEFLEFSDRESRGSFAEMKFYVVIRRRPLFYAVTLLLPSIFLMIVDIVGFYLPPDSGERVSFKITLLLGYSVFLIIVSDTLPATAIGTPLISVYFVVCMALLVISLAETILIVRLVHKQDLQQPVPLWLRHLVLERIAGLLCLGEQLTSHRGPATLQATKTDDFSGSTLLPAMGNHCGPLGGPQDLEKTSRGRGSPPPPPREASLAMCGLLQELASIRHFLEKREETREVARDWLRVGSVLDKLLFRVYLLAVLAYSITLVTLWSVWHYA
Experimental: The test was conducted following the method of Miyata, et al. (The Journal of Pharmacology and Experimental Therapeutics Vol.259, No:1, 15 (1991)).
Male Hartley guinea pigs with a body weight of 300-400 g were bled to death, the distal colon (3-10 cm from the anus) was isolated and suspended in a Magnus tube filled with Krebs solution aerated with a mixed gas (95% O2, 5% CO2), and subjected to a tensile load of 1 g. After constant contraction by cumulative addition of 2-methylserotonin (10^-6 -10^-4 M) was obtained, the test agent was added and the pA2 value of the test agent was calculated based on its inhibiting action on the initial value.
The value (pA2 value) is defined as the negative logarithm (-logM) of the molar concentration (M) of the antagonist required to reduce the effect of serotonin at a concentration of 2 times the 2-methylserotonin concentration (EC50) necessary to induce half of the maximum contraction reaction, to an effect induced by an EC50 of serotonin.

stress-related diarrhea = settings: animal models; J. Pharmacol. Exp. Ther. 261, 297 (1992); cited from earlier work
[3] = test system: duodenal extension reflex; experiment: Inhibiting effect on duodenal extension reflex; assay type: in vivo, Wistar rats; settings: for Inhibition rate, 5-min value / Inhibition rate, 15-min value / Inhibition rate, 25-min value: intravenous
Text: Inhibiting effect on duodenal extension reflex: Unfasted male Wistar rats with a body weight of 300-390 g were opened at the abdomen under urethane anesthesia, and ligated at 2 locations, the gastric pyloric region and 3-4 cm directly under it, to create a duodenal loop. […] The beaker was raised at once to create a internal loop pressure of 75 cm H2, and the depressor reflex and effect of the test agent administration were observed. […] The test agent was then administrated intravenously, and at 5, 15 and 25 minutes after administration an extension stimulus was applied, the depressor reflex was observed, and the differences were expressed as percentages with respect to the initial value, to give the inhibition rates.

[4] = test system: 5-HT3 receptors in the upper intestine; experiment: Antagonism against 5-HT-induced intestinal secretion (jejunal loop); assay type: in vivo, wister rats; settings: for net fluid transfer in jejunal loop: caudal vein, 15 min before serotonin
Experimental: Antagonism against 5-HT-induced intestinal secretion:
Male wister rats (8-11 weeks old) were anesthetized with urethane, and the abdomen was opened a polyethylene catheter was placed in the jejunum 5 cm distal to the duodenojejunal flexure and fixed by ligation. The second ligation was made at a distal point of 20 cm to create a jejunal loop. Two ml of physiological saline was injected into this loop and initiated continuous injection of physiological saline (0.1 ml/min) or 5-HT (3 μg/0.1 ml/kg/min, serotonin treated group) into the mesenteric artery through the mesenteric artery gastric branch, and after 30 minutes the jejunal loop was isolated, the residual fluid amount was measured, and the net fluid transfer per gram of tissue weight was calculated. The net fluid transfer was expressed as the fluid amount (weight) change in 30 minutes per jejunal tissue weight (g/30 min/g). A "+" was assigned when the fluid amount increased compared with 2 ml of physiological saline injected into the loop, and "-" when it decreased

[5] = test system: restraint stress-induced diarrhea; experiment: Inhibiting effect on restraint stress-induced diarrhea (intraabdominal administration); assay type: in vivo, Wistar rats; settings: 30 μg/kg, 30 min before stress
Experimental: Inhibiting effect on restraint stress-induced diarrhea (intraabdominal administration): This test was conducted in the same manner as Test 3. Nine- to ten-week-oldmale Wistar rats fasted overnight were placed in a stress case and their feces produced in 5 hours were observed. Of 15 rats, 14 developed diarrhea. The inhibiting effect on diarrhea was measured by intraabdominal administration of a test compound 30 minutes prior to placement in the stress cage.

Acute toxicity (oral) = assay type: in vivo; settings: rats; for LD50: rat, in vivo; for cases of death: 1000 mg/kg
gastric emptying = experiment: Accelerating effect on gastric emptying (cisplatin-reduced); assay type: in vivo, SD rats; settings: for Gastric evacuation: oral, 30 min before cisplatin 10 mg/kg
Experimental: Accelerating effect on gastric emptying
Seven-week-old male SD rats which had been fasted for 24 hours were used. The effect on gastric emptying was studied in rats with reduced gastric emptying due to cisplatin. The rats were intragastrically administered the test feed (1.5% aqueous CMC solution containing 50 mg/100 ml phenol red) at 1.5 ml/rat, and after 15 minutes the stomachs were dissected, the residual amount of phenol red in the stomach was measured, in order to determine the gastric emptying in normal animals. A cisplatin-induced reduction in gastric emptying was measured by intraabdominal administration of cisplatin (10 mg/kg) 30 minutes prior to supplying the test feed. The test compound was also administered orally 30 minutes prior to the cisplatin administration to study the accelerating effect of the test compound on gastric emptying.

[6] = test system: restrained stress-induced diarrhea; experiment: Inhibiting effect on restrained stress-induced diarrhea (oral administration); assay type: in vivo, Wistar rats; settings: 1 hour before stress
Experimental: Inhibiting effect on restrained stress-induced diarrhea (oral administration): This test was conducted following the method of Miyata, et al. […] Nine-week-old male Wistar rats fasted overnight were placed in a stress cage and their feces produced in 5 hours were observed. Of 15 rats, 14 developed diarrhea. The inhibiting effect on diarrhea was measured by oral administration of the test compounds one hour prior to placement in the stress cage.

[7] = test system: cisplatin-induced vomiting; experiment: Inhibiting effect on cisplatin-induced vomiting; assay type: in vivo, ferrets; settings: oral, 1 hour before cisplatin; for No. of retching / No. of vomiting animals/No. of animals used / No. of vomitings: 6 hours
Text: Inhibiting effect on cisplatin-induced vomiting:
Vomiting was induced in ferrets by administration of cisplatin. The inhibiting effect on this vomiting was observed. […] The test agents were orally administered one hour prior to cisplatin administration. […]

[8] = read-out: M (molar concentration of antagonist)

Compound: Cl.O=C(C1CCc2nc[nH]c2C1)N1CC(c2ccccc2)c2ccccc21 (stereo not drawn) [Compound 2, 5-[(3-phenylindolin-1-yl)carbonyl]-4,5,6,7-tetrahydrobenzimidazole hydrochloride]
- ED50 ([1]; iv): 0.0003 mg/kg
- Kb ([2]; read-out: pA2 (converted)): 1000 pM

Compound: O=C(C1CCc2nc[nH]c2C1)N1CC(c2ccccc2O)c2ccccc21 (stereo not drawn) [Compound 10, 5-[(3-(2-hydroxyphenyl)indolin-1-yl)carbonyl]-4,5,6,7-tetrahydrobenzimidazole hydrochloride]
- Kb [2, 8]: 50 pM
- Kb ([2]; read-out: pA2 (converted)): 126 pM

Compound: CC1CN(C(=O)C2CCc3[nH]cnc3C2)c2ccccc21 (stereo not drawn) [A, reference compound]
- Kb ([2]; read-out: pA2 (converted)): > 10000 pM

Compound: CN1C2CCCC1CC(NC(=O)c1nn(C)c3ccccc13)C2 (stereo not drawn) [Granisetron, N-(endo-9-methyl-9-azabicyclo [3,3,1]nona-3-yl)-l-methyl-indazol-3-carboxamide hydrochloride]
- suppression of stress-related diarrhea (in words) (stress-related diarrhea): suppress stress-related diarrhea

Compound: CN1[C@@H]2CC[C@H]1C[C@@H](OC(=O)c1c[nH]c3ccccc13)C2 [Tropisetron, endo-8-methyl-8-azabicyclo[3,2,1]octa-3-yl indol-3-ylcarboxylate]
- Inhibition rate, 5-min value ([3]; 10 μg/kg): 42.7%
- Inhibition rate, 15-min value ([3]; 10 μg/kg): 44.1%
- Inhibition rate, 25-min value ([3]; 10 μg/kg): 30.6%

Compound: NCCc1c[nH]c2ccc(O)cc12 [serotonin, 5-hydroxytryptamine]
- acceleration in intestinal secretion ([4]; serotonin administration versus control): 0.19 g/30 min/g tissue weight

Compound: Cl.O=C(C1CCc2nc[nH]c2C1)N1CC(c2ccccc2)c2ccccc21 (stereo not drawn) [Compound 4, 5-[(3-phenylindolin-1-yl)carbonyl]-4,5,6,7-tetrahydrobenzimidazole hydrochloride]
- net fluid transfer in jejunal loop ([4]; 0.1 μg/kg): -0.50 ± 0.07 g/30 min/g tissue weight
- net fluid transfer in jejunal loop ([4]; 1.0 μg/kg): -0.80 ± 0.09 g/30 min/g tissue weight
- Inhibition rate [5]: 90%
- No. of animals with diarrhea/No. of animals used [5]: 1/10
- LD50 (Acute toxicity (oral)): ≥ 1000 mg/kg
- cases of death (Acute toxicity (oral)): no cases of death
- ED50 ([1]; iv): 0.00039 µmol/kg
- activity in the colon compared to YM-060 and YM-114 ([2]; colon, relative to YM-060 and YM-114): about 15 -fold
- Kb [2, 8]: 300 pM
- Kb ([2]; read-out: pA2 (converted)): 251 pM
- inhibition of cisplatin-induced gastric emptying reduction (in words) (gastric emptying; 0.3 μg/kg): inhibited similar cisplatin-induced gastric emptying reduction
- Gastric evacuation (gastric emptying; 0.3 μg/kg): 73.3%
- amount needed relative to YM-060 for similar inhibition of gastric emptying reduction (gastric emptying; 0.3 μg/kg, relative to the amount of YM-060): less than 1/3
- gastric emptying acceleration (in words) (gastric emptying; 1.0 μg/kg): gastric emptying was further accelerated
- Gastric evacuation (gastric emptying; 1.0 μg/kg): 82.4%
- Inhibition rate ([6]; 30 μg/kg): 70%
- No. of animals with diarrhea/No. of animals used ([6]; 30 μg/kg): 3/10
- Inhibition rate, 5-min value ([3]; 1 μg/kg): 21.7%
- Inhibition rate, 15-min value ([3]; 1 μg/kg): 6.7%
- Inhibition rate, 25-min value ([3]; 1 μg/kg): 20.2%
- Inhibition rate, 5-min value ([3]; 10 μg/kg): 16.3%
- Inhibition rate, 15-min value ([3]; 10 μg/kg): 17.8%
- Inhibition rate, 25-min value ([3]; 10 μg/kg): 21.1%
- inhibition of intestinal sensitivity to dilatation / alleviation of abdominal pain (in words) ([3]; rat, in vivo): inhibited intestinal sensitivity to dilatation stimulation more strongly than YM-060
- Latency* (time to initial retching) ([7]; 0.3 μg): 114.0 min
- Latency** (time to initial vomiting) ([7]; 0.3 μg): 114.0 min
- No. of retching ([7]; 0.3 μg): 139.0
- No. of vomiting animals/No. of animals used ([7]; 0.3 μg): 2/2
- No. of vomitings ([7]; 0.3 μg): 7.0
- Latency* (time to initial retching) ([7]; 1.0 μg): > 289.7 min
- Latency** (time to initial vomiting) ([7]; 1.0 μg): 293.0 min
- No. of retching ([7]; 1.0 μg): 14.7
- No. of vomiting animals/No. of animals used ([7]; 1.0 μg): 1/3
- No. of vomitings ([7]; 1.0 μg): 1.0

Compound: COc1cccc(C2CN(C(=O)C3CCc4nc[nH]c4C3)c3ccccc32)c1 (stereo not drawn) [Compound 12, 5-[(3-(3-methoxyphenyl)indolin-1-yl)carbonyl]-4,5,6,7-tetrahydrobenzimidazole hydrochloride]
- Kb [2, 8]: 130 pM
- Kb ([2]; read-out: pA2 (converted)): 100 pM

Compound: O=C([C@@H]1CCc2[nH]cnc2C1)N1CCc2ccccc21 [YM-114, reference compound]
- ED50 ([1]; intravenous): 0.00015 mg/kg
- Kb ([2]; read-out: pA2 (converted)): 3980 pM
- Inhibition rate ([6]; 30 μg/kg): 30%
- No. of animals with diarrhea/No. of animals used ([6]; 30 μg/kg): 7/10

Compound: Cl.O=C(C1CCc2nc[nH]c2C1)N1CC(c2ccc(O)cc2)c2ccccc21 (stereo not drawn) [Compound 8, 5-[(3-(4-hydroxyphenyl)indolin-1-yl)carbonyl]-4,5,6,7-tetrahydrobenzimidazole hydrochloride]
- LD50 (Acute toxicity (oral)): ≥ 1000 mg/kg
- cases of death (Acute toxicity (oral)): no cases of death
- ED50 ([1]; iv): 0.00013 mg/kg
- Kb ([2]; read-out: pA2 (converted)): 100 pM
- Inhibition rate ([6]; 30 μg/kg): 70%
- No. of animals with diarrhea/No. of animals used ([6]; 30 μg/kg): 2/10

Compound: Cc1nccn1CC1CCc2c(c3ccccc3n2C)C1=O (stereo not drawn) [Ondansetron, 1,2,3,4-tetrahydro-9-methyl-3-[(2-methyl-1H-imidazol-1-yl)methyl]-4H-carbazol-4-one-hydrochloride dihydrate]
- suppression of stress-related diarrhea (in words) (stress-related diarrhea): suppress stress-related diarrhea

Compound: Cl.O=C(C1CCc2nc[nH]c2C1)N1CC(c2cccc(O)c2)c2ccccc21 (stereo not drawn) [Compound 6, 5-[(3-(3-hydroxyphenyl)indolin-1-yl)carbonyl]-4,5,6,7-tetrahydrobenzimidazole hydrochloride]
- LD50 (Acute toxicity (oral)): ≥ 1000 mg/kg
- cases of death (Acute toxicity (oral)): no cases of death
- ED50 ([1]; iv): 0.00015 mg/kg
- Kb ([2]; read-out: pA2 (converted)): 100 pM
- Inhibition rate ([6]; 100 μg/kg): 100%
- No. of animals with diarrhea/No. of animals used ([6]; 100 μg/kg): 0/5
